Results: patent publication US20030212105A1, “Novel anti-fertility agent” (priority 2002, published 2003)

Tests used:
female albino rats [1] = assay: Anti-implantation studies of roxatidine acetate in female rats (post coital); format: in vivo, rat
Procedure: Roxatidine was screened as a post coital anti-fertility agent on different days of pregnancy i.e. day 1st, days 1st-3rd day 4th i.e. day of ([…] days 1st-5th, days 1st-7th and day 15th-20th i.e. period of organogenesis) post coitum. The aim of the study was to determine the minimum possible dose of drug showing anti implantation activity and the specific days of gestation period when the activity is maximum studies were carried out in order to determine the possible mechanism of action of the drug. Further ELISA was conducted to assess the effects of roxatidine on the serum level of estrogen and progesterone respectively.
Daily vaginal smears of the female albino rats were taken and the regular periodicity of the estrus cycle was checked.
The animals were held, ventral side up and a drop of 0.9% saline was inserted into the vagina with the help of a Pasteur pipette, carefully, without damaging the vaginal wall to avoid false positive smears. The drop of normal saline was aspirated and replaced several times with the vaginal fluid, withdrawn and transferred to a microscopic slide. A coverslip was placed carefully on the smear avoiding the air bubble. The slide was then observed under a compound microscope (magnification-45×) and the stage of estrus cycle was determined.
Female rats in proestrus or estrus stage were housed with mature male rats (in the ratio 3 females:1 male). Each female was examined for the presence of spermatozoa in the early morning. The day on which this sign of mating is seen is taken as day 1 of pregnancy. The female was then separated and caged singly. Roxatidine was administered orally to the animal once daily on specific days of pregnancy at different concentrations.
Pregnant rats were divided into 5 groups of 10 animals each. To group I, which served as control, a constant volume of distilled water was administered orally with the help of a catheter. The drug namely, roxatidine was administered at doses of 2.5, 10, 15 & 20 mg/kg body weight orally, on specific days of pregnancy.
Fifty albino rats were divided into groups of 10 animals each. Group I served as control and received distilled water. Group II to V received Roxatidine acetate at doses of 2.5,10,15 & 20 mg/kg body weight, orally respectively on day 1 postcoital with the help of a catheter.
On day 10 of pregnancy the animal was laprotomized and the number of implants present in both the uterine horns as well as the number of corpora lutea on each ovary was counted. The animals were allowed to complete the gestation period (usually 21-23 days) and the number of litters delivered, if any were counted In this case, 2 litters were delivered.
Fifty albino rats were divided into groups of 10 animals each. Group I served as control and received distilled water. Group II to V received Roxatidine acetate at doses of 2.5,10,15 & 20 mg/kg body weight, orally respectively on day 1-3 postcoital with the help of a catheter.
On day 10 of pregnancy the animal was laprotomized and the number of implants present in both the uterine horns as well as the number of corpora lutea on each ovary was counted.
Fifty albino rats were divided into groups of 10 animals each. Group I served as control and received distilled water. Group II to V received Roxatidine acetate at doses of 2.5,10,15 & 20 mg/kg body weight, orally respectively on day 4 postcoital with the help of a catheter.
On day 10 of pregnancy the animal was laprotomized and the number of implants present in both the uterine horns as well as the number of corpora lutea on each ovary was counted. The animals were allowed to complete the gestation period (usually 21-23 days) at the end of which 3 litters were found.
Fifty albino rats were divided into groups of 10 animals each. Group I served as control and received distilled water. Group II to V received Roxatidine acetate at doses of 2.5, 10, 15 & 20 mg/kg body weight, orally respectively on day 1-7 postcoital with the help of a catheter. […]

female albino rats [2] = assay: Preovulatory effects of roxatidine acetate in female albino rats; format: in vivo, rat; details: 2.5, 10, 15 & 20 mg/kg for 15 consecutive days before mating; dose group not stated
Procedure: Animals with normal estrus cycle were divided into […] with 10 animals in each group. Group I served as control and received distilled water orally. Animals in Group II, II, IV & V were administered roxatidine acetate at the doses of 2.5, 10, 15, & 20 mg/kg body weight respectively, for 15 consecutive days. During this period daily vaginal smears were taken to observe the regularity of the estrus cycle.
The females in all the groups were then paired with males of proven fertility. Daily vaginal smears were taken until the animals successfully mated. This was indicated by the presence of spermatozoa in the vaginal smears and this was taken as day 1 of pregnancy. On day 10 each animal was laprotomized and the no. of implants/resorption sites and the no. of corpora lutea were counted. The number of litters delivered at the end of the gestation period were 2.

[3] = Solubility in water (preparation of drug solution); format: physicochemical; details: distilled water
pregnant female rats = details: cited from earlier work

Row | Compound | number of litters found at end of gestation period (female albino rats [1]; 2.5, 10, 15 & 20 mg/kg orally on day 1-3 postcoital, gestation 21-23 days) | number of litters found at end of gestation period (female albino rats [1]; 2.5, 10, 15 & 20 mg/kg orally on day 1-5 postcoital, gestation 21-23 days) | number of litters found at end of gestation period (female albino rats [1]; 2.5, 10, 15 & 20 mg/kg orally on day 1-7 postcoital, gestation 21-23 days) | number of litters delivered at end of gestation period (female albino rats [1]; 2.5, 10, 15 & 20 mg/kg orally on day 1 postcoital, gestation 21-23 days, dose group not stated) | number of litters found at end of gestation period (female albino rats [1]; 2.5, 10, 15 & 20 mg/kg orally on day 4 postcoital, gestation 21-23 days, dose group not stated) | number of litters seen at end of gestation period (female albino rats [1]; 2.5, 10, 15 & 20 mg/kg orally on day 15-20 postcoital, gestation 21-23 days, dose group not stated) | inhibition of implantation (female albino rats [1]; administered in animal models) | number of litters delivered at the end of the gestation period (female albino rats [2]) | solubility in water [3] | anti-implantation effects (pregnant female rats; oral, daily for 1-7 days post coitum, pregnant female rats) | oestrogenic/anti-oestrogenic activity (pregnant female rats; rats)
1 | CC(=O)OCC(=O)NCCCOc1cccc(CN2CCCCC2)c1 [Roxatidine acetate] | no litters were found | no litters were found | no litters were found | 2 | 3 | 2 | effective in inhibiting implantation | 2 | readily and completely soluble in water |  | 
2 | CN/C(=N/CCSCc1nc[nH]c1C)NC#N [cimetidine] |  |  |  |  |  |  |  |  |  | exhibited anti-implantation effects | did not possess oestrogenic/anti-oestrogenic activity
